Values of other authors in US11629364B2, “Methods for synthesizing anticoagulant polysaccharides” (OPTIMVIA, LLC, priority 2019, dated 2023).

Details: pH 8.0

SMILES: Nc1ncnc2c1ncn2[C@@H]1O[C@H](COP(=O)(O)OS(=O)(=O)O)[C@@H](OP(=O)(O)O)[C@H]1O [PAPS, 3′-phosphoadenosine 5′-phosphosulfate]
- half-life of PAPS: about 20 hours
